The values below are quoted from earlier work in patent US5418161A (The Chinese University of Hong Kong, priority 1993, dated 1995).

Each structure is given as a SMILES string.

In the case of `O=C1/C(=C2\Nc3ccc(S(=O)(=O)O)cc3C2=O)Nc2ccc(S(=O)(=O)O)cc21` [indigo carmine], the solubility in water result was “soluble”.
